This passage reports MIC and IC50 results from article PMC12566157, “Redox-Active Quinazolinone Thioamide Ag(I) Complexes with Potent Antibacterial Activity: Mechanistic Insights and Hydrogel-Enhanced Efficacy” (Molecules, 2025).

For orientation: IC50 means the concentration at which inhibition is half-maximal.

In experiment [1] the test system is S. aureus. As to the kind of experiment: microbe, parasite or virus in culture. The following applies: Staphylococcus aureus, read-out: S. aureus MIC μg mL-1.
Description: (§1) The in vitro antibacterial activity of the synthesized Ag(I) complexes was investigated against two bacterial strains: Gram (+) S. aureus and the Gram (−) E. coli. The assays were conducted using the broth microdilution method to determine both the half-maximal inhibitory concentrations (IC50) and minimal inhibitory concentrations (MIC).
The test system of the next experiment is E. coli. As to the kind of experiment: microbe, parasite or virus in culture. The settings on record: Escherichia coli, read-out: E. coli IC50 μg mL-1.
Experiment [2] deals with S. aureus. Nature of the experiment: microbe, parasite or virus in culture. The following applies: Staphylococcus aureus, read-out: S. aureus IC50 μg mL-1.
Description: as §1
In experiment [3] the target is T1, thioredoxin reductase (TrxR) (Escherichia coli, UniProt P0A9P4).
T1 construct: gene trxB
As to the kind of experiment: enzyme inhibition assay with pure E. coli TrxR. It counts as biochemical.

The target in experiment [4] is T2, glutathione reductase (GR) (Escherichia coli, UniProt A0A0H3JIZ9).
T2 construct: gene gor
As to the kind of experiment: enzyme inhibition assay with pure E. coli GR. It counts as biochemical.

T1 sequence (P0A9P4 2-321): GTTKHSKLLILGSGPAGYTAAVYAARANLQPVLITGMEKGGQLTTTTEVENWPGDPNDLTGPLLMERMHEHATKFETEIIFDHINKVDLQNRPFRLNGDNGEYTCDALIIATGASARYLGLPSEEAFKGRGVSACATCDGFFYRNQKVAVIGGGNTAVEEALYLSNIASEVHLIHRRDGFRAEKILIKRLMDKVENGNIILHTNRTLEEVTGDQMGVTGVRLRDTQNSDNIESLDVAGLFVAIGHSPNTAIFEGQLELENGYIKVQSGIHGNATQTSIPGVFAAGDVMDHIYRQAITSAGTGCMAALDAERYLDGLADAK
T2 sequence (A0A0H3JIZ9 entry or part of it): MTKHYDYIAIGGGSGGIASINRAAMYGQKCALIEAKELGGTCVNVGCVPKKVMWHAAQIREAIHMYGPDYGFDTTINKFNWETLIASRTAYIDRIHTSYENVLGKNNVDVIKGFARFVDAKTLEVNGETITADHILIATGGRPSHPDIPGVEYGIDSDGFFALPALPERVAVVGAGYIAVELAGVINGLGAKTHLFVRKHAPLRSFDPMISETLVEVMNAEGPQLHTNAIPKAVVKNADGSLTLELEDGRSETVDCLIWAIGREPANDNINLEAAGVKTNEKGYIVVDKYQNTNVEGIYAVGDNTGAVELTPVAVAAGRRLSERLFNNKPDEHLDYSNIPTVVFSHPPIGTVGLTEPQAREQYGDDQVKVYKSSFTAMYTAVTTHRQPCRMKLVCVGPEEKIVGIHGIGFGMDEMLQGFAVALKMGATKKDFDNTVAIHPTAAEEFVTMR

For the molecule `c1ccc(P(c2ccccc2)c2ccccc2Oc2ccccc2P(c2ccccc2)c2ccccc2)cc1` [DPEPhos, bis[(2-diphenylphosphino)phenyl]ether], in the experiment with S. aureus [1], the MIC is greater than 100 µg/mL. Besides, the 50% inhibitory concentration (IC50) in the experiment on E. coli and with S. aureus [2] was greater than 100 µg/mL each time.
Consider `c1ccc(P(c2ccccc2)c2ccccc2)cc1` [PPh3, thriphenylphosphine], for which the MIC in the experiment on S. aureus [1] was greater than 100 µg/mL. Moreover, the IC50 in the experiment on E. coli and with S. aureus [2] was greater than 100 µg/mL each time.
As to `O=c1[nH]c(=S)[nH]c2ccccc12` [mqztH, 2-mercapto-4(3H)-quinazolinone], the MIC in the experiment on S. aureus [1] is greater than 100 µg/mL. In addition, the concentration for half-maximal inhibition (IC50) with E. coli and in the experiment on S. aureus [2] was greater than 100 µg/mL each time.
Regarding [AgCl(mqztH)(PPh3)2] [compound 1], the IC50 in experiment [3] was 0.215 µM; in experiment [4] it was 0.065 µM.
